Literature values, collected in patent EP0303681B1 (priority 1987, dated 1988).

## Sc1ncnc2nc[nH]c12 [6 MP, 6-mercaptopurine]
Alkaline solutions
  solubility in alkaline solutions: soluble
Hot ethanol
  solubility in hot ethanol: soluble
water
  solubility in water: insoluble
